The source of these data is patent publication US11440939B2, “Anticancer peptides” (IDP DISCOVERY PHARMA, S.L., priority 2017, dated 2022).

One data set has as its system NCI-H82. The format is cell-based. The settings on record: 72 h. The protocol:
NCI-H82, epithelial (small cell lung cancer, SCLC), ATCC-CRL-5811;
(§1) Cell line MCF-7 was cultured in incubator under CO2 (6%) at 37° C. in DMEM high glucose (Dulbecco's Modified Eagle Solution, Gibco-BRL 31966-21) medium with 10% fetal bovine serum inactivated (FBS) (Gibco-BRL 10106-169). Cell lines HL-60, NCI-H524, NCI-H526, NCI-H69, NCI-H82, NCI-H187 and H5B were cultured in an incubator at 37° C. in RPMI-1640 (Sigma R8758) medium with 10% of fetal bovine serum inactivated (FBS) and 2 mM glutamine (Sigma G7513). Cell line NCI-H510A was cultured in incubator in F12K medium with 10% of fetal bovine serum inactivated (FBS). Cell line GBM-18 and GBM-27 were cultured in incubator under CO2 (6%) at 37° C. in complete medium (Neurobasal+B27+Glutamax+Growth factors).
(§2) During the amplification step and the assays, adherent cells were rinsed with DPBS (Dulbecco's Phosphate Buffered Saline, Sigma D1283) three times and afterward treated for 5 minutes with trypsin ([…]) (Gibco-BRL, 15400054) in solution of DPBS at 37° C., and, once detached, transferred in the culturing medium. No-adherent cells were centrifuged and transferred in the culturing medium. Cells were counted in a Neubauer chamber after labelling with Tripan-Blue.
(§3) MCF-7, NCI-H187, NCI-H69, NCI-H526 and H5B cells were seeded at a density of 5000 cells/well; NCI-H524 and NCI-H82 were seeded at a density of 2500 cells/well; HL-60 and NCI-H510A at 10000 cells/well in 100 μl of medium in 96 well plates. After 24 h, the compounds to be tested were added to calculate the dose/response curve at the starting concentration of 100 μM with serial dilutions (1:1). Controls were the untreated cells. Each experiment was performed in triplicate.
(§4) Cells were incubated during 72 h in incubator under CO2 atmosphere at 37° C. Cell viability was measured by means of MTT (3-(4,5-dimethylthiazol-2-yl)-2,5-diphenyltetrazolium bromide) assay, Alamar Blue® (Biosource DAL1100) and Hexosaminidase activity test, consecutively, following manufacturer instructions.
(§5) MTT: 1. Stock solution of MTT (475989 Calbiochem) was 5 mg/ml in PBS 1×. As negative control (experiment noise) 3 wells were treated with 20 μl/well of a solution of SDS 10% in H2O. The same control was used for Alamar Blue/Hexosaminidase. 10 μl/well of MTT solution were added and the plate was incubated for 3-4 hr. The medium was discarded and 100 μl of extracting buffer (PBS 1×, 15% SDS, 50% […] N,N-Dimethylformamide, pH 4,7) were added to each well. Plates were incubated for 16 h at room temperature under orbital shaking. Absorbance at 570 nm was finally measured.
(§6) Alamar Blue: 10 μl Alamar Blue solution was added to each well and the plates were incubated for […] in the incubator. Fluorescence ratio at 535/590 (excitation/emission) was measured in Cytofluor (Millipore) fluorimeter. Blank control was determined by lysis of untreated cells with con 2% of Triton X100, right before adding Alamar Blue solution.
(§7) Hexosaminidase activity test: after Alamar Blue lecture, medium was discarded and plates were rinsed once with PBS. 60 μl hexosaminidase substrate (p-nitrophenol-N-acetyl-beta-D-glucosamide 7.5 mM [Sigma N-9376], sodium citrate 0.1 M, pH 5.0, 0.25% Triton X-100) was added to each well and the plates were incubated at 37° C. for 2-5 h, according to the cell type (hexosaminidase activity changes according to the cell type). […] Blank control was the same as described before.
(§8) Data analysis was performed calculating the percentage of cell viability normalized vs. the values of negative control, which was considered equal to 100%. The dose/response curve was fitted through the sigmoidal equation dose-response (variable slope) and the EC50 values were calculated as follow: Y=Bottom+(Top−Bottom)/(1+10^{[(Log EC50−X)*HillSlope]},

The subject of another data set is NCI-H524. The format is cell-based. The settings on record: 72 h. The protocol: NCI-H524, lung (small cell lung cancer, SCLC), ATCC-CRL-5831;
as §1
During the amplification step and the assays, adherent cells were rinsed with DPBS (Dulbecco's Phosphate Buffered Saline, Sigma D1283) three times and afterward treated for 5 minutes with trypsin ([…]) (Gibco-BRL, 15400054) in solution of DPBS at 37° C., and, once detached, transferred in the culturing medium. No-adherent cells were centrifuged and transferred in the culturing medium. Cells were counted in a Neubauer chamber after labelling with Tripan-Blue. […]
as §4
MTT: 1. […] Absorbance at 570 nm was finally measured.
Alamar Blue: 10 μl Alamar Blue solution was added to each well and the plates were incubated for […] in the incubator. Fluorescence ratio at 535/590 (excitation/emission) was measured in Cytofluor (Millipore) fluorimeter. Blank control was determined by lysis of untreated cells with con 2% of Triton X100, right before adding Alamar Blue solution. […]

Another data set relates to NCI-H510A. The data set is classed as cell-based. The settings on record: 72 h. The protocol: NCI-510A, epithelial (small cell lung cancer, SCLC), ATCC-HBT-124; and Hepatocytes (normal liver), from a donor was provided by Foundation DTI-Donation & Transplantation Institute from surgical wastes and from organs not suitable for transplantation
as §1, §2, §3, §4, §5, §6, §7, §8

A further data set concerns HL-60. The format is cell-based. The protocol:
HL-60, promyeloblast (acute myelocytic leukemia, AML), ECACC: 98070106;
(§9) Cell line MCF-7 was cultured in incubator under CO2 (6%) at 37° C. in DMEM high glucose (Dulbecco's Modified Eagle Solution, Gibco-BRL 31966-21) medium with 10% fetal bovine serum inactivated (FBS) (Gibco-BRL 10106-169). Cell lines HL-60, NCI-H524, NCI-H526, NCI-H69, NCI-H82, NCI-H187 and H5B were cultured in an incubator at 37° C. in RPMI-1640 (Sigma R8758) medium with 10% of fetal bovine serum inactivated (FBS) and 2 mM glutamine (Sigma G7513). Cell line NCI-H510A was cultured in incubator in F12K medium with 10% of fetal bovine serum inactivated (FBS). […]
During the amplification step and the assays, adherent cells were rinsed with DPBS (Dulbecco's Phosphate Buffered Saline, Sigma D1283) three times and afterward treated for 5 minutes with trypsin ([…]) (Gibco-BRL, 15400054) in solution of DPBS at 37° C., and, once detached, transferred in the culturing medium. […] Cells were counted in a Neubauer chamber after labelling with Tripan-Blue. […]
as §4
MTT: 1. […] Absorbance at 570 nm was finally measured. […]

In a further data set the test system is GBM-18. The data set is classed as cell-based. The protocol: GMB-18, epithelial (glioblastoma, GMB), from surgical specimens from patients;
as §9
During the amplification step and the assays, adherent cells were rinsed with DPBS (Dulbecco's Phosphate Buffered Saline, Sigma D1283) three times and afterward treated for 5 minutes with trypsin ([…]) (Gibco-BRL, 15400054) in solution of DPBS at 37° C., and, once detached, transferred in the culturing medium. […] Cells were counted in a Neubauer chamber after labelling with Tripan-Blue.
Cells were incubated during 72 h in incubator under CO2 atmosphere at 37° C. Cell viability was measured by means of MTT (3-(4,5-dimethylthiazol-2-yl)-2,5-diphenyltetrazolium bromide) assay, Alamar Blue® (Biosource DAL1100) and Hexosaminidase activity test, consecutively, following manufacturer instructions. […]

A short description of data set [1]: Stability test in human plasma, LC MS/MS. Conditions: 37° C. The data set is classed as in vitro ADME. The protocol: For the preparation of stock solutions, H14 was dissolved in water/acetonitrile (95/5, v/v) containing 0.1% formic acid to a concentration of 1.00 mg/mL. Further serial dilutions were carried out in plasma. The concentrations were calculated under consideration of purity.
For preparation of plasma samples, the human blank plasma were fortified with the stock solution using a ratio of 1:100 to obtain a sample with 10.0 μg/mL which was subsequently serial-diluted in human blank plasma.
A volume of 300 μL of human plasma samples for the two peptide concentrations (100 ng/mL and 1000 ng/mL) were transferred to an empty 96 deep well plate. The plate was incubated at 37° C. in a thermomixer at approximately 700 rpm. At selected incubation time points of 0 h, 1 h, 2 h, 4 h, 6 h and 24 h, aliquots of plasma were precipitated with acetonitrile containing internal standard. To an aliquot of 20 μL human plasma samples, 40 μL of acetonitrile containing 1% formic acid and the internal standard was added. After vortex mixing for a few seconds, the samples were centrifuged for about 10 minutes at approximately 50000 g. The temperature of the centrifuge was set to 8° C. An aliquot of 30 μL of the supernatant was transferred to an autosampler vial for analysis using LC MS/MS.
The quantification of H14 was performed by column separation with reverse phase chromatography followed by detection with triple stage quadrupole MS/MS in the selected reaction monitoring mode.

Numbered stars: 1 amine (or outer) side, 2 acyl side, 3 side chain; on linkers, the order of the positions; unused ones are H or OH. Bridge positions count the residues as written; N and C are the ends. Square brackets hold non-standard residues; d marks the D form. Peptide text beside a SMILES is read from it. ξ: configuration not given here. ξαMeNle(6-ylidene) = CC(CCCC=[*:3])(N[*:1])C(=O)[*:2]; X1 = CC(CCCCCCC=[*:3])(N[*:1])C(=O)[*:2]

Turning to `CC(C)C[C@H](NC(=O)[C@H](CCCCN)NC(=O)[C@@H](NC(=O)[C@@H](N)CCCNC(=N)N)C(C)C)C(=O)N[C@H](C(=O)N[C@@H](CC(N)=O)C(=O)N[C@@H](CC(C)C)C(=O)NC1(C)CCCCCCC=CCCCC(C)(C(=O)N[C@H](C(=O)N2CCC[C@H]2C(N)=O)C(C)C)NC(=O)[C@H](CCC(=O)O)NC(=O)[C@H](CCCNC(=N)N)NC(=O)[C@H](CC(C)C)NC(=O)[C@H]([C@@H](C)O)NC(=O)[C@H](C)NC(=O)[C@H](Cc2ccccc2)NC1=O)C(C)C` (some centres unmarked) [H14] (H-RVKLVNL[X1]FATLRE[ξαMeNle(6-ylidene)]VP-NH2; staple 8-15; N-terminus and C-terminus assumed), the EC50 is roughly 12.5 µM in the data set on NCI-H82; roughly 12.5 µM with NCI-H524; roughly 12 µM with NCI-H510A; roughly 14 µM with HL-60; roughly 4 µM with GBM-18. Further, the “H14 amount (% peak area)” value in data set [1] (100 ng/mL, 0 h) was determined as 100 % peak area; in data set [1] (100 ng/mL, 2 h) it was 96.1 % peak area; in data set [1] (1000 ng/mL, 0 h), 100 % peak area. In addition, in data set [1] (100 ng/mL, 1 h, read-out: H14 amount (% peak area)), the remaining at 1 h, 100 ng/mL was determined as 96.1%. In addition, the remaining at 4 h, 100 ng/mL in data set [1] (100 ng/mL, 4 h, read-out: H14 amount (% peak area)) worked out at 102%. For the same compound, the remaining at 6 h, 100 ng/mL in data set [1] (100 ng/mL, 6 h, read-out: H14 amount (% peak area)) turned out to be 97.2%. In data set [1] (100 ng/mL, 24 h, read-out: H14 amount (% peak area)), the remaining at 24 h, 100 ng/mL stood at 108%. For the same compound, the remaining at 1 h, 1000 ng/mL in data set [1] (1000 ng/mL, 1 h, read-out: H14 amount (% peak area)) stood at 101%. Also, the remaining at 2 h, 1000 ng/mL in data set [1] (1000 ng/mL, 2 h, read-out: H14 amount (% peak area)) was 94.9%. For the same compound, in data set [1] (1000 ng/mL, 4 h, read-out: H14 amount (% peak area)), the remaining at 4 h, 1000 ng/mL is 95.4%. For the same compound, the remaining at 6 h, 1000 ng/mL in data set [1] (1000 ng/mL, 6 h, read-out: H14 amount (% peak area)) came to 99.9%. For the same compound, the remaining at 24 h, 1000 ng/mL in data set [1] (1000 ng/mL, 24 h, read-out: H14 amount (% peak area)) was 101%.
